Source: ChEMBL document CHEMBL2424569, “Synthesis of halogenated derivatives of thymol and their antimicrobial activities” (2013)
Converted amounts (≈) assume the structure as drawn. The source made the active and inactive calls. The calls are words filed in the database; no cut-off is given here.

Legend:
Format in all cases: functional
[1] = test system: Candida albicans; test: Antifungal activity against Candida albicans CN by two-fold serial dilution assay
[2] = test system: Candida albicans; test: Antifungal activity against Candida albicans MTCC by two-fold serial dilution assay
[3] = test system: Candida albicans; test: Antifungal activity against Candida albicans AI by two-fold serial dilution assay
[4] = test system: Candida albicans; test: Antifungal activity against Candida albicans CN at MIC after 7 to 10 days by disc diffusion assay
[5] = test system: Candida albicans; test: Antifungal activity against Candida albicans MTCC at MIC after 7 to 10 days by disc diffusion assay
[6] = test system: Candida albicans; test: Antifungal activity against Candida albicans AI at MIC after 7 to 10 days by disc diffusion assay
[7] = test system: Klebsiella pneumoniae; test: Antibacterial activity against Klebsiella pneumoniae by two-fold serial dilution assay
[8] = test system: Escherichia coli; test: Antibacterial activity against Escherichia coli by two-fold serial dilution assay
[9] = test system: Streptococcus mutans; test: Antibacterial activity against Streptococcus mutans by two-fold serial dilution assay
[10] = test system: Enterococcus faecalis; test: Antibacterial activity against Enterococcus faecalis by two-fold serial dilution assay
[11] = test system: Klebsiella aerogenes; test: Antibacterial activity against Enterobacter aerogenes by two-fold serial dilution assay
[12] = test system: Staphylococcus epidermidis; test: Antibacterial activity against Staphylococcus epidermidis by two-fold serial dilution assay
[13] = test system: Staphylococcus aureus; test: Antibacterial activity against Staphylococcus aureus by two-fold serial dilution assay
[14] = test system: Klebsiella pneumoniae; test: Antibacterial activity against Klebsiella pneumoniae at MIC after 48 hrs by disc diffusion assay
[15] = test system: Escherichia coli; test: Antibacterial activity against Escherichia coli at MIC after 48 hrs by disc diffusion assay
[16] = test system: Streptococcus mutans; test: Antibacterial activity against Streptococcus mutans at MIC after 48 hrs by disc diffusion assay
[17] = test system: Klebsiella aerogenes; test: Antibacterial activity against Enterobacter aerogenes at MIC after 48 hrs by disc diffusion assay
[18] = test system: Enterococcus faecalis; test: Antibacterial activity against Enterococcus faecalis at MIC after 48 hrs by disc diffusion assay
[19] = test system: Staphylococcus epidermidis; test: Antibacterial activity against Staphylococcus epidermidis at MIC after 48 hrs by disc diffusion assay
[20] = test system: Staphylococcus aureus; test: Antibacterial activity against Staphylococcus aureus at MIC after 48 hrs by disc diffusion assay

| SMILES | Activity [1] | Activity [2] | Activity [3] | Activity [4] | Activity [5] | Activity [6] | Activity [7] | Activity [8] | Activity [9] | Activity [10] | Activity [11] | Activity [12] | Activity [13] | Activity [14] | Activity [15] | Activity [16] | Activity [17] | Activity [18] | Activity [19] | Activity [20] | other results |
| --- | --- | --- | --- | --- | --- | --- | --- | --- | --- | --- | --- | --- | --- | --- | --- | --- | --- | --- | --- | --- | --- |
| COc1cc(C)ccc1C(C)C | inactive | inactive | inactive | inactive | inactive | inactive | inactive | inactive | inactive | inactive | inactive | inactive | inactive | inactive | inactive | inactive | inactive | inactive | inactive | inactive |  |
| COc1cc(C)c(I)cc1C(C)C | inactive | inactive | inactive | inactive | inactive | inactive | inactive | inactive | inactive | inactive | inactive | inactive | inactive | inactive | inactive | inactive | inactive | inactive | inactive | inactive |  |
| Cc1cc(O)c(C(C)C)cc1Cl [CHLOROTHYMOL] |  |  |  |  |  |  |  |  |  |  |  |  |  |  |  |  |  |  |  |  | MIC [1]: 100 µg/mL (≈ 542 µM); MIC [2]: 100 µg/mL (≈ 542 µM); MIC [3]: 100 µg/mL (≈ 542 µM); inhibition zone (IZ) [4]: 10 mm; inhibition zone (IZ) [5]: 20 mm; inhibition zone (IZ) [6]: 30 mm; MIC [12]: 25 µg/mL (≈ 135 µM); MIC [13]: 12.5 µg/mL (≈ 67.7 µM); inhibition zone (IZ) [19]: 6 mm; inhibition zone (IZ) [20]: 5 mm |
| Cc1c(Br)cc(C(C)C)c(O)c1Br | inactive | inactive | inactive | inactive | inactive | inactive |  |  |  |  |  |  |  |  |  |  |  |  |  |  | MIC [12]: 1000 µg/mL (≈ 3250 µM); MIC [13]: 250 µg/mL (≈ 812 µM); inhibition zone (IZ) [19]: 16 mm; inhibition zone (IZ) [20]: 13 mm |
| Cc1ccc(C(C)C)c(O)c1Br | inactive | inactive | inactive | inactive | inactive | inactive |  |  |  |  |  |  |  |  |  |  |  |  |  |  | MIC [9]: 125 µg/mL (≈ 546 µM); MIC [11]: 100 µg/mL (≈ 436 µM); inhibition zone (IZ) [16]: 3 mm; inhibition zone (IZ) [17]: 2 mm |
| COc1c(C(C)C)ccc(C)c1Br | inactive | inactive | inactive | inactive | inactive | inactive | inactive | inactive | inactive | inactive | inactive | inactive | inactive | inactive | inactive | inactive | inactive | inactive | inactive | inactive |  |
| Cc1c(Cl)cc(C(C)C)c(O)c1Cl | inactive | inactive | inactive | inactive | inactive | inactive | inactive | inactive | inactive | inactive | inactive | inactive | inactive | inactive | inactive | inactive | inactive | inactive | inactive | inactive |  |
| Cc1c(Cl)cc(C(C)C)c(O)c1Br | inactive | inactive | inactive | inactive | inactive | inactive | inactive | inactive | inactive | inactive | inactive | inactive | inactive | inactive | inactive | inactive | inactive | inactive | inactive | inactive |  |
| Cc1ccc(C(C)C)c(O)c1 [THYMOL] |  |  |  |  |  |  |  |  |  |  |  |  |  |  |  |  |  |  |  |  | MIC [1]: 100 µg/mL (≈ 666 µM); MIC [2]: 100 µg/mL (≈ 666 µM); MIC [3]: 100 µg/mL (≈ 666 µM); inhibition zone (IZ) [4]: 6 mm; inhibition zone (IZ) [5]: 8 mm; inhibition zone (IZ) [6]: 5 mm; MIC [7]: 250 µg/mL (≈ 1660 µM); MIC [8]: 100 µg/mL (≈ 666 µM); MIC [9]: 62.5 µg/mL (≈ 416 µM); MIC [10]: 62.5 µg/mL (≈ 416 µM); MIC [11]: 125 µg/mL (≈ 832 µM); MIC [12]: 32.2 µg/mL (≈ 215 µM); MIC [13]: 125 µg/mL (≈ 832 µM); inhibition zone (IZ) [14]: 6 mm; inhibition zone (IZ) [15]: 3 mm; inhibition zone (IZ) [16]: 11 mm; inhibition zone (IZ) [17]: 8 mm; inhibition zone (IZ) [18]: 10 mm; inhibition zone (IZ) [19]: 18 mm; inhibition zone (IZ) [20]: 12 mm |
| C[C@@H]1[C@H](O)[C@@H](C)/C=C/C=C/C=C/C=C/C=C/C=C/C=C/[C@H](O[C@@H]2O[C@H](C)[C@@H](O)[C@H](N)[C@@H]2O)C[C@@H]2O[C@](O)(C[C@@H](O)C[C@@H](O)[C@H](O)CC[C@@H](O)C[C@@H](O)CC(=O)O[C@H]1C)C[C@H](O)[C@H]2C(=O)O [AMPHOTERICIN B] |  |  |  |  |  |  |  |  |  |  |  |  |  |  |  |  |  |  |  |  | MIC [1]: 100 µg/mL (≈ 108 µM); MIC [2]: 100 µg/mL (≈ 108 µM); MIC [3]: 100 µg/mL (≈ 108 µM); inhibition zone (IZ) [4]: 10 mm; inhibition zone (IZ) [5]: 20 mm; inhibition zone (IZ) [6]: 30 mm |
| CN[C@@H]1[C@H](O[C@H]2[C@H](O[C@H]3[C@H](O)[C@@H](O)[C@H](N=C(N)N)[C@@H](O)[C@@H]3N=C(N)N)O[C@@H](C)[C@]2(O)C=O)O[C@@H](CO)[C@H](O)[C@H]1O [STREPTOMYCIN] |  |  |  |  |  |  |  |  |  |  |  |  |  |  |  |  |  |  |  |  | MIC [7]: 2.71 µg/mL (≈ 4.66 µM); MIC [8]: 1.35 µg/mL (≈ 2.32 µM); MIC [9]: 6.35 µg/mL (≈ 10.9 µM); MIC [10]: 0.36 µg/mL (≈ 0.619 µM); MIC [11]: 2.71 µg/mL (≈ 4.66 µM); MIC [12]: 6.35 µg/mL (≈ 10.9 µM); MIC [13]: 12.5 µg/mL (≈ 21.5 µM); inhibition zone (IZ) [14]: 9 mm; inhibition zone (IZ) [15]: 9 mm; inhibition zone (IZ) [16]: 13 mm; inhibition zone (IZ) [17]: 10 mm; inhibition zone (IZ) [18]: 10 mm; inhibition zone (IZ) [19]: 9 mm; inhibition zone (IZ) [20]: 9 mm |
